Source: US9932331B2, “Phenyl tetrahydroisoquinoline compound substituted with heteroaryl” (TAISHO PHARMACEUTICAL CO., LTD, priority 2014, dated 2018)
Where a name gives a salt, the structure may show the parent alone.

What was measured:
SD rat = experiment: 32P-phosphate oral loading test using SD rat (phosphorus absorption inhibitory effect); type: in vivo; conditions: Rattus norvegicus, 0.5 h, SD male rats, plasma radioactivity 30 minutes after 32P-phosphate solution, vs control group, read-out: Rate of inhibition of phosphate absorption; for inhibition in vivo at 3 mg/kg: oral dose 3 mg/kg
Method: Phosphorus Absorption Inhibitory Effect of the Compound of the Present Invention in ^32P-Phosphate Oral Loading Test Using SD Rat
8-week-old SD male rats (Japan SLC, Inc.) were used as laboratory animals. Each test compound was suspended or dissolved at a concentration of 0.2 mg/mL or 0.6 mg/mL in Japanese Pharmacopoeia water for injection (manufactured by Hikari Pharmaceutical Co., Ltd.) and orally administered to each rat at a dose of 5 ml/kg body weight. Japanese Pharmacopoeia water for injection was administered at the same dose as above to a control group. 5 minutes after the administration of the test compound or water for injection, a phosphate solution (1.3 mM NaH2PO4) containing 32P-phosphate (PerkinElmer Inc.) was administered thereto at a dose of 5 ml/kg. 30 minutes after the administration of the phosphate solution, blood was collected from the tail vein, and the blood sample was immediately mixed with EDTA-2K (manufactured by Dojindo Laboratories). Then, the mixture was centrifuged at 3000 rpm at 4° C. for 10 minutes to recover plasma.
The radioactivity in 100 μL of the plasma was measured using a liquid scintillation counter and used as a phosphate absorption count. The radioactivity in the plasma of the control group was used as a control, and the rate of inhibition of phosphate absorption was determined according to the following expression: Rate of inhibition of phosphate absorption (%)=(1−Phosphate absorption count of the test compound administration group/Phosphate absorption count of the control group)×100 (2) Results

human NHE3 = biological target: T1, human NHE3 (Homo sapiens, UniProt P48764); experiment: NHE3 inhibition test (recovery of intracellular pH in cell line stably expressing human NHE3); type: cell-based; conditions: OK cells deficient in endogenous NHE stably expressing human NHE3; BCECF fluorescence, initial rate of pH recovery; read-out: human NHE3 inhibitory activity IC50
T1 sequence (P48764 26-834): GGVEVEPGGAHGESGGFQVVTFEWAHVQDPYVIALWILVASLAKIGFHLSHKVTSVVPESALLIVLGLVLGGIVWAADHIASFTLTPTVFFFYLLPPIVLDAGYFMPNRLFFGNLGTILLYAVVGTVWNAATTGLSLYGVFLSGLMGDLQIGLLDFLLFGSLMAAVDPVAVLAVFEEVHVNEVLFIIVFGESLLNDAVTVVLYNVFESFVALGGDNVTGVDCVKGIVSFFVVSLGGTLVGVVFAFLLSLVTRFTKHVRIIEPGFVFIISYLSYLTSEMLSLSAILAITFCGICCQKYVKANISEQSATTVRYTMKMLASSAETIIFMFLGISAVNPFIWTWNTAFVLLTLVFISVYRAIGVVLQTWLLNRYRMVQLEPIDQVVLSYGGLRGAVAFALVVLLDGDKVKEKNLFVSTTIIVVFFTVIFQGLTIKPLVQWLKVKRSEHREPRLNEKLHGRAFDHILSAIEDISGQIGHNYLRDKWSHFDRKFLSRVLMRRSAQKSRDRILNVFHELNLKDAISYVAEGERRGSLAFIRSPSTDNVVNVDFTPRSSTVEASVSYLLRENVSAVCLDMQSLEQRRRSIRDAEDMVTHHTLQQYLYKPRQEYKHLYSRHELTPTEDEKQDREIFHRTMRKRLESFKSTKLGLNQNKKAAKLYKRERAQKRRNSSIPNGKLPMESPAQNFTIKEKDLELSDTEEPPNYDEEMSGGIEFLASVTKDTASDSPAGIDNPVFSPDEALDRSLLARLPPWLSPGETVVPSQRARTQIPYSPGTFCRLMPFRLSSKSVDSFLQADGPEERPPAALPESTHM
Outline: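 Opossum kidney cells lacking endogenous NHE, stably expressing human NHE3, loaded with BCECF-AM and acid-loaded by NH4Cl washout. Compound in Na-free buffer, then Na-containing buffer (pH 7.4) added; initial pH-recovery rate by BCECF fluorescence, IC50 versus no-compound recovery.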

IC50 (human NHE3) | SMILES | inhibition in vivo at 1 mg/kg (SD rat; oral dose 1 mg/kg) | inhibition in vivo at 3 mg/kg (SD rat)
5.7 nM | CN1Cc2c(Cl)cc(Cl)cc2[C@H](c2cccc(-c3cn(CCOCCOCCOCCNC(=O)NCCCCNC(=O)NCCOCCOCCOCCn4cc(-c5cccc([C@@H]6CN(C)Cc7c(Cl)cc(Cl)cc76)c5)nn4)nn3)c2)C1 [Example 6-2, 1,1′-Butane-1,4-diylbis {3-[2-(2-{2-[2-(4-{3-[(4S)-6,8-dichloro-2-methyl-1,2,3,4-tetrahydroisoquinolin-4-yl]phenyl}-1H-1,2,3-triazol-1-yl)ethoxy]ethoxy}ethoxy)ethyl]urea}hydrochloride] | 47% | –
97.6 nM | CN1Cc2c(Cl)cc(Cl)cc2[C@H](c2cccc(-c3cn(CCOCCOCCNC(=O)COCC(=O)NCCOCCOCCn4cc(-c5cccc([C@@H]6CN(C)Cc7c(Cl)cc(Cl)cc76)c5)nn4)nn3)c2)C1 [Example 6-4, 1-(4-{3-[(4S)-6,8-Dichloro-2-methyl-1,2,3,4-tetrahydroisoquinolin-4-yl]phenyl}-1H-1,2,3-triazol-1-yl)-N-(2-{2-[2-(4-{3-[(4S)-6,8-dichloro-2-methyl-1,2,3,4-tetrahydroisoquinolin-4-yl]phenyl}-1H-1,2,3-triazol-1-yl)ethoxy]ethoxy}ethyl)-10-oxo-3,6,12-trioxa-9-azatetradecan-14-amide hydrochloride] | – | -5%
9.5 nM | CN1Cc2c(Cl)cc(Cl)cc2[C@H](c2cccc(-c3cn(CCOCCOCCNC(=O)Nc4ccc(NC(=O)NCCOCCOCCn5cc(-c6cccc([C@@H]7CN(C)Cc8c(Cl)cc(Cl)cc87)c6)nn5)cc4)nn3)c2)C1 [Example 6-5, 1,1′-Benzene-1,4-diylbis[3-(2-{2-[2-(4-{3-[(4S)-6,8-dichloro-2-methyl-1,2,3,4-tetrahydroisoquinolin-4-yl]phenyl}-1H-1,2,3-triazol-1-yl)ethoxy]ethoxy}ethyl)urea]hydrochloride] | – | 46%
10.6 nM | CN1Cc2c(Cl)cc(Cl)cc2[C@H](c2cccc(-c3cc(NCCOCCOCCOCCNC(=O)CCCCC(=O)NCCOCCOCCOCCNc4cc(-c5cccc([C@@H]6CN(C)Cc7c(Cl)cc(Cl)cc76)c5)ncn4)ncn3)c2)C1 [Example 8-13, N,N′-Bis{2-[2-(2-{2-[(6-{3-[(4S)-6,8-dichloro-2-methyl-1,2,3,4-tetrahydroisoquinolin-4-yl]phenyl}pyrimidin-4-yl)amino]ethoxy}ethoxy)ethoxy]ethyl}hexanediamide hydrochloride] | – | –
1.9 nM | CN1Cc2c(Cl)cc(Cl)cc2[C@H](c2cccc(-c3nnc(CCOCCOCCOCCNC(=O)[C@H](O)[C@@H](O)C(=O)NCCOCCOCCOCCc4nnc(-c5cccc([C@@H]6CN(C)Cc7c(Cl)cc(Cl)cc76)c5)[nH]4)[nH]3)c2)C1 [Example 8-15, (2R,3R)-N,N′-Bis[2-(2-{2-[2-(5-{3-[(4S)-6,8-dichloro-2-methyl-1,2,3,4-tetrahydroisoquinolin-4-yl]phenyl}-4H-1,2,4-triazol-3-yl)ethoxy]ethoxy}ethoxy)ethyl]-2,3-dihydroxybutanediamide diformate] | – | –
6.8 nM | CN1Cc2c(Cl)cc(Cl)cc2[C@H](c2cccc(-c3cnnc(NCCOCCOCCOCCNC(=O)[C@H](O)[C@@H](O)C(=O)NCCOCCOCCOCCNc4cc(-c5cccc([C@@H]6CN(C)Cc7c(Cl)cc(Cl)cc76)c5)cnn4)c3)c2)C1 [Example 8-19, (2R,3R)-N,N′-Bis{2-[2-(2-{2-[(5-{3-[(4S)-6,8-dichloro-2-methyl-1,2,3,4-tetrahydroisoquinolin-4-yl]phenyl}pyridazin-3-yl)amino]ethoxy}ethoxy)ethoxy]ethyl}-2,3-dihydroxybutanediamide tetrahydrochloride] | – | –
3.2 nM | CN1Cc2c(Cl)cc(Cl)cc2[C@H](c2cccc(-c3cnc(NCCOCCOCCOCCNC(=O)[C@H](O)[C@@H](O)C(=O)NCCOCCOCCOCCNc4ncc(-c5cccc([C@@H]6CN(C)Cc7c(Cl)cc(Cl)cc76)c5)cn4)nc3)c2)C1 [Example 8-21, (2R,3R)-N,N′-Bis{2-[2-(2-{2-[(5-{3-[(4S)-6,8-dichloro-2-methyl-1,2,3,4-tetrahydroisoquinolin-4-yl]phenyl}pyrimidin-2-yl)amino]ethoxy}ethoxy)ethoxy]ethyl}-2,3-dihydroxybutanediamide formate] | – | –
10.5 nM | CN1Cc2c(Cl)cc(Cl)cc2[C@H](c2cccc(-c3cc(OCCOCCOCCOCCNC(=O)CCC(=O)NCCOCCOCCOCCOc4cc(-c5cccc([C@@H]6CN(C)Cc7c(Cl)cc(Cl)cc76)c5)ncn4)ncn3)c2)C1 [Example 8-22, N,N′-Bis{2-[2-(2-{2-[(6-{3-[(4S)-6,8-dichloro-2-methyl-1,2,3,4-tetrahydroisoquinolin-4-yl]phenyl}pyrimidin-4-yl)oxy]ethoxy}ethoxy)ethoxy]ethyl}butanediamide hydrochloride] | – | –
4.7 nM | CN1Cc2c(Cl)cc(Cl)cc2[C@H](c2cccc(-c3cc(OCCOCCOCCOCCNC(=O)CCCCC(=O)NCCOCCOCCOCCOc4cc(-c5cccc([C@@H]6CN(C)Cc7c(Cl)cc(Cl)cc76)c5)ncn4)ncn3)c2)C1 [Example 8-23, N,N′-Bis{2-[2-(2-{2-[(6-{3-[(4S)-6,8-dichloro-2-methyl-1,2,3,4-tetrahydroisoquinolin-4-yl]phenyl}pyrimidin-4-yl)oxy]ethoxy}ethoxy)ethoxy]ethyl}hexanediamide hydrochloride] | – | –
3.4 nM | CN1Cc2c(Cl)cc(Cl)cc2[C@H](c2cccc(-c3nnc(CCOCCOCCOCCNC(=O)[C@@H](O)[C@H](O)[C@H](O)[C@@H](O)C(=O)NCCOCCOCCOCCc4nnc(-c5cccc([C@@H]6CN(C)Cc7c(Cl)cc(Cl)cc76)c5)[nH]4)[nH]3)c2)C1 [Example 8-24, (2R,3S,4R,5S)-N,N′-Bis[2-(2-{2-[2-(5-{3-[(4S)-6,8-dichloro-2-methyl-1,2,3,4-tetrahydroisoquinolin-4-yl]phenyl}-4H-1,2,4-triazol-3-yl)ethoxy]ethoxy}ethoxy)ethyl]-2,3,4,5-tetrahydroxyhexanediamide hydrochloride] | – | –
0.2 nM | CN1Cc2c(Cl)cc(Cl)cc2[C@H](c2cccc(-c3nnn(CCOCCOCCOCCNC(=O)[C@@H](O)[C@H](O)[C@H](O)[C@@H](O)C(=O)NCCOCCOCCOCCn4nnc(-c5cccc([C@@H]6CN(C)Cc7c(Cl)cc(Cl)cc76)c5)n4)n3)c2)C1 [Example 8-25, (2R,3S,4R,5S)-N,N′-Bis[2-(2-{2-[2-(5-{3-[(4S)-6,8-dichloro-2-methyl-1,2,3,4-tetrahydroisoquinolin-4-yl]phenyl}-2H-tetrazol-2-yl)ethoxy]ethoxy}ethoxy)ethyl]-2,3,4,5-tetrahydroxyhexanediamide hydrochloride] | – | –
2.2 nM | CN1Cc2c(Cl)cc(Cl)cc2[C@H](c2cccc(-c3cc(NCCOCCOCCOCCNC(=O)[C@@H](O)[C@H](O)[C@H](O)[C@@H](O)C(=O)NCCOCCOCCOCCNc4cc(-c5cccc([C@@H]6CN(C)Cc7c(Cl)cc(Cl)cc76)c5)ncn4)ncn3)c2)C1 [Example 8-26, (2R,3S,4R,5S)-N,N′-Bis{2-[2-(2-{2-[(6-{3-[(4S)-6,8-dichloro-2-methyl-1,2,3,4-tetrahydroisoquinolin-4-yl]phenyl}pyrimidin-4-yl)amino]ethoxy}ethoxy)ethoxy]ethyl}-2,3,4,5-tetrahydroxyhexanediamide hydrochloride] | – | –
13.1 nM | CN1Cc2c(Cl)cc(Cl)cc2[C@H](c2cccc(-c3cn(CCOCCOCCOCCNC(=O)CN(CCN(CC(=O)NCCOCCOCCOCCn4cc(-c5cccc([C@@H]6CN(C)Cc7c(Cl)cc(Cl)cc76)c5)nn4)CC(=O)NCCOCCOCCOCCn4cc(-c5cccc([C@@H]6CN(C)Cc7c(Cl)cc(Cl)cc76)c5)nn4)CC(=O)NCCOCCOCCOCCn4cc(-c5cccc([C@@H]6CN(C)Cc7c(Cl)cc(Cl)cc76)c5)nn4)nn3)c2)C1 [Example 9-1, hydrochloride] | – | –
